In brackets after ≈: the same amount, converted by molar mass.
Tests used:
Assay type in all cases: cell-based
S. mariescens FPOR 8733 = assay: MIC, agar dilution
[1] = system: S. hemolyticus AVHAH 88-3; assay: MIC, agar dilution; conditions: S. hemolyticus AVHAH 88-3
E. coli UBMS 90-4 Tet M = assay: microbe, parasite or virus in culture; conditions: E. coli UBMS 90-4 Tet M
[2] = system: E. coli MC 4100 TNIOC Tet B; assay: microbe, parasite or virus in culture; conditions: E. coli MC 4100 TNIOC Tet B
[3] = system: Ps. acruginosa ATCC 27853; assay: MIC, agar dilution; conditions: Ps. acruginosa ATCC 27853
E. coli BAJ9003 IMP MUT = assay: microbe, parasite or virus in culture; conditions: E. coli BAJ9003 IMP MUT
E. faecalis ATCC 29212 = assay: MIC, agar dilution; conditions: E. faecalis ATCC 29212
E. coli J3272 Tet C = assay: microbe, parasite or virus in culture; conditions: E. coli J3272 Tet C
S. aureus NEMC 8769 = assay: MIC, agar dilution; conditions: S. aureus NEMC 8769
E. coli UBMS 89-1 Tet M = assay: microbe, parasite or virus in culture; conditions: E. coli UBMS 89-1 Tet M
S. aureus SMITH (MP) = assay: MIC, agar dilution; conditions: S. aureus SMITH (MP)
S. aureus IVES 1 983 = assay: MIC, agar dilution; conditions: S. aureus IVES 1 983
[4] = system: X. maltophilia NEMC 87210; assay: MIC, agar dilution
[5] = system: S. aureus UBMS 90-1 Tet M; assay: microbe, parasite or virus in culture; conditions: S. aureus UBMS 90-1 Tet M
S. aureus UBMS 90-3 = assay: MIC, agar dilution; conditions: S. aureus UBMS 90-3
E. coli UBMS 90-5 = assay: MIC, agar dilution
[6] = system: S. aureus UBMS 88-7 Tet K; assay: microbe, parasite or virus in culture; conditions: S. aureus UBMS 88-7 Tet K
E. coli J2175 = assay: MIC, agar dilution; conditions: E. coli J2175
[7] = system: E. coli UBMS 89-2 Tet sens.; assay: MIC, agar dilution; conditions: E. coli UBMS 89-2 Tet sens.
S. aureus IVES 2943 = assay: MIC, agar dilution; conditions: S. aureus IVES 2943
E. coli ATCC 25922 = assay: MIC, agar dilution; conditions: E. coli ATCC 25922
[8] = system: S. aureus UBMS 90-2 Tet M; assay: microbe, parasite or virus in culture; conditions: S. aureus UBMS 90-2 Tet M
[9] = system: S. aureus UBMS 88-5 Tet M; assay: microbe, parasite or virus in culture; conditions: S. aureus UBMS 88-5 Tet M
[10] = system: E. coli MC 4100 Tet sens.; assay: MIC, agar dilution
S. aureus ROSE (MP) = assay: MIC, agar dilution; conditions: S. aureus ROSE (MP)
S. aureus UBMS 88-4 = assay: MIC, agar dilution; conditions: S. aureus UBMS 88-4
S. aureus ATCC 29213 = assay: MIC, agar dilution; conditions: S. aureus ATCC 29213
E. coli #311 (MP) = assay: MIC, agar dilution; conditions: E. coli #311 (MP)
E. coli UBMS 88-1 Tet B = assay: microbe, parasite or virus in culture; conditions: E. coli UBMS 88-1 Tet B; 18 hours at 35° C.
E. coli PRP1 Tet A = assay: microbe, parasite or virus in culture; conditions: E. coli PRP1 Tet A
E. coli J3272 Tet D = assay: microbe, parasite or virus in culture; conditions: E. coli J3272 Tet D
Enterococcus 12201 = assay: MIC, agar dilution; conditions: Enterococcus 12201

Molecule `CN(C)c1cc(NC(=O)CNCCN2CCCCC2)c(O)c2c1C[C@H]1C[C@H]3[C@H](N(C)C)C(O)=C(C(N)=O)C(=O)[C@@]3(O)C(O)=C1C2=O` [U, [4S-(4alpha,12alpha)]-4,7-Bis(dimethylamino)-1,4,4a,5,5a,6,11,12a-octahydro3,10,12,12a-tetrahydroxy-1,11-dioxo-9-[[[[2-(1-piperidinyl)ethyl]amino]acetyl]amino]-2-naphthacenecarboxamide] has an MIC (S. mariescens FPOR 8733) greater than 32 mg/L, an MIC [1] of 32 mg/L (≈ 49.9 µM) and an MIC (E. coli UBMS 90-4 Tet M) of 16 mg/L (≈ 25 µM). For the same molecule, the MIC [2] was 32 mg/L (≈ 49.9 µM), the MIC [3] was greater than 32 mg/L and the MIC (E. coli BAJ9003 IMP MUT) was 2 mg/L (≈ 3.12 µM). For the same molecule, the MIC (E. faecalis ATCC 29212) was 8 mg/L (≈ 12.5 µM), the MIC (E. coli J3272 Tet C) was 16 mg/L (≈ 25 µM) and the MIC (S. aureus NEMC 8769) was 8 mg/L (≈ 12.5 µM). For the same molecule, the MIC (E. coli UBMS 89-1 Tet M) was 16 mg/L (≈ 25 µM), the MIC (S. aureus SMITH (MP)) was 8 mg/L (≈ 12.5 µM) and the MIC (S. aureus IVES 1 983) was greater than 32 mg/L. The MIC [4] was 16 mg/L (≈ 25 µM), the MIC [5] was 32 mg/L (≈ 49.9 µM) and the MIC (S. aureus UBMS 90-3) was 8 mg/L (≈ 12.5 µM). It also gave an MIC (E. coli UBMS 90-5) of 16 mg/L (≈ 25 µM), an MIC [6] of 16 mg/L (≈ 25 µM) and an MIC (E. coli J2175) of 32 mg/L (≈ 49.9 µM). The MIC [7] was 32 mg/L (≈ 49.9 µM), the MIC (S. aureus IVES 2943) was greater than 32 mg/L and the MIC (E. coli ATCC 25922) was 16 mg/L (≈ 25 µM). For the same molecule, the MIC [8] was 8 mg/L (≈ 12.5 µM), the MIC [9] was 16 mg/L (≈ 25 µM) and the MIC [10] was 4 mg/L (≈ 6.24 µM). For the same molecule, the MIC (S. aureus ROSE (MP)) was greater than 32 mg/L, the MIC (S. aureus UBMS 88-4) was 8 mg/L (≈ 12.5 µM) and the MIC (S. aureus ATCC 29213) was 8 mg/L (≈ 12.5 µM). The MIC (E. coli #311 (MP)) was 16 mg/L (≈ 25 µM), the MIC (E. coli UBMS 88-1 Tet B) was greater than 32 mg/L and the MIC (E. coli PRP1 Tet A) was greater than 32 mg/L.
`CN(C)c1cc(NC(=O)CNCCCCO)c(O)c2c1C[C@H]1C[C@H]3[C@H](N(C)C)C(O)=C(C(N)=O)C(=O)[C@@]3(O)C(O)=C1C2=O` [R] was tested, and the MIC (S. mariescens FPOR 8733) was 8 mg/L (≈ 13.3 µM), the MIC [1] was 32 mg/L (≈ 53.2 µM) and the MIC (E. coli J3272 Tet D) was 8 mg/L (≈ 13.3 µM). The MIC (Enterococcus 12201) was 8 mg/L (≈ 13.3 µM), the MIC [3] was greater than 32 mg/L and the MIC (E. coli BAJ9003 IMP MUT) was 4 mg/L (≈ 6.65 µM). For the same molecule, the MIC (E. faecalis ATCC 29212) was 8 mg/L (≈ 13.3 µM), the MIC (S. aureus NEMC 8769) was 8 mg/L (≈ 13.3 µM) and the MIC (E. coli UBMS 89-1 Tet M) was 32 mg/L (≈ 53.2 µM). It also gave an MIC (S. aureus SMITH (MP)) of 8 mg/L (≈ 13.3 µM), an MIC (S. aureus IVES 1 983) greater than 32 mg/L and an MIC [4] of 8 mg/L (≈ 13.3 µM). The MIC [5] was 32 mg/L (≈ 53.2 µM), the MIC (S. aureus UBMS 90-3) was 8 mg/L (≈ 13.3 µM) and the MIC [6] was 32 mg/L (≈ 53.2 µM). The MIC (S. aureus IVES 2943) was greater than 32 mg/L, the MIC (E. coli ATCC 25922) was 32 mg/L (≈ 53.2 µM) and the MIC [8] was 16 mg/L (≈ 26.6 µM). For the same molecule, the MIC [9] was 32 mg/L (≈ 53.2 µM), the MIC [10] was 8 mg/L (≈ 13.3 µM) and the MIC (S. aureus ROSE (MP)) was greater than 32 mg/L. It also gave an MIC (S. aureus UBMS 88-4) of 8 mg/L (≈ 13.3 µM), an MIC (S. aureus ATCC 29213) of 16 mg/L (≈ 26.6 µM) and an MIC (E. coli #311 (MP)) of 32 mg/L (≈ 53.2 µM). It also gave an MIC (E. coli UBMS 88-1 Tet B) greater than 32 mg/L.

Reference: patent US5328902A, “7-(substituted)-9-[(substituted glycyl)amido]-6-demethyl-6-deoxytetracyclines” (American Cyanamid Co., priority 1992, dated 1994)
